Results reported in patent publication US7781592B2, “Thione derivative, method for the preparation thereof, and pharmaceutical composition containing the same” (CJ Cheiljedang Corporation, priority 2003, dated 2010).

What was measured:
COX-2 = target: T1, COX-2 (Mus musculus, UniProt Q05769); experiment: Assay for the COX-2 inhibitory activity using Raw 264.7 cell line (PGE2 inhibition); type: cell-based; details: test compound 30 nM, RAW 264.7 cells, aspirin pre-treated, interferon + LPS 18 hours, PGE2 by EIA; for inhibition at 0.03 µM: RAW264.7, read-out: Cyclooxygenase (COX) Inhibition (%) COX-2 (30 nM)
T1 construct: host or cells: RAW 264.7 cells, pre-treated with aspirin, then induced with interferon and LPS
T1 sequence (Q05769 18-604): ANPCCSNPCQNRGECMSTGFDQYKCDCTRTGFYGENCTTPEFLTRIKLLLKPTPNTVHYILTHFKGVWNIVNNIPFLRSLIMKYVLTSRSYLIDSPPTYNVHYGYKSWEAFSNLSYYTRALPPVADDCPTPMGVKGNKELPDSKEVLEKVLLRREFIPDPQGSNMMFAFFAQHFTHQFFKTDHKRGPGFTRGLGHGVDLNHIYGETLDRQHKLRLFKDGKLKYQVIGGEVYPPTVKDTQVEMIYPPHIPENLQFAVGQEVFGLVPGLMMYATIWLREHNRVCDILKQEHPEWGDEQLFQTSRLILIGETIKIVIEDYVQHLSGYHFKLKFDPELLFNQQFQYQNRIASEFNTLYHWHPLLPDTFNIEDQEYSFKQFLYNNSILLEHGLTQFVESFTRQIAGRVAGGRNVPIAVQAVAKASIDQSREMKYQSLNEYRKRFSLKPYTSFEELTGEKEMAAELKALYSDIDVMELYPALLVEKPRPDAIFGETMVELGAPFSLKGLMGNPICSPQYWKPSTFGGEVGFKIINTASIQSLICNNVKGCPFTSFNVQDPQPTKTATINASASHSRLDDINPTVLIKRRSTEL
Experimental: Each well was treated with 250 μM of aspirin and incubated at 37° C. for 2 hours. After the culture media were replaced with new culture media, the new culture media were treated with a test compound (30 nM) and incubated for 30 minutes. Then, each well was treated with interferon ? (100 units/ml) and lipopolysaccharide (LPS, 100 ng/ml) and incubated for 18 hours. The culture media were transferred to other test tubes. The concentration of PGE2 was quantified by means of the EIA kit (Cayman Chemicals).
(§1) The percentages of the COX inhibition were calculated according to the following equation: % Inhibition=(concentration of PGE2 in test compound-untreated sample−concentration of PGE2 in test compound-treated sample)/(concentration of PGE2 in test compound-untreated sample)×100

COX-1 = target: T2, COX-1 (Homo sapiens, UniProt P23219); experiment: Assay for the COX-1 inhibitory activity using U-937 (PGE2 inhibition); type: cell-based; details: test compound 1 μM, U-937 human lymphoma cells, arachidonic acid substrate, PGE2 quantified; for inhibition at 1 µM: read-out: Cyclooxygenase (COX) Inhibition (%) COX-1 (1 μM)
T2 construct: host or cells: U-937 human lymphoma cells
Experimental: The collected cells were diluted with HBSS (×1, Hank's balanced salt solution) to a concentration of 1×10^6 cells/ml. 1 ml of the dilute cell solution was placed into each well of 12-well plates. 5 μl of 1 μM solution of a test compound in DMSO and 5 μl of DMSO as a control were added to the wells. The wells were incubated in CO2 incubator at 37° C. for 15 minutes. Separately, 10 mM stock solution of arachidonic acid in ethanol was diluted ten times in ethanol to prepare 1 mM solution of arachidonic acid. Arachidonic acid acts as a substrate. 10 μl of the 1 mM solution of arachidonic acid was added to each well and incubated at CO2 incubator at 37° C. for 30 minutes. The cell solution of each well was placed in a centrifuge test tube and centrifuged at 10,000 rpm at 4° C. for 5 minutes. The concentration of PGE2 in the collected cells and the supernatant was quantified by means of a monoclonal kit (Cayman Chemicals). The percentages of PGE2 inhibition in a group of the test compound-treated cells in relation to a group of the DMSO-treated cells were calculated. Based on the calculated values, the COX-1 inhibitory activities were evaluated.
as §1

T2 sequence (P23219 24-599): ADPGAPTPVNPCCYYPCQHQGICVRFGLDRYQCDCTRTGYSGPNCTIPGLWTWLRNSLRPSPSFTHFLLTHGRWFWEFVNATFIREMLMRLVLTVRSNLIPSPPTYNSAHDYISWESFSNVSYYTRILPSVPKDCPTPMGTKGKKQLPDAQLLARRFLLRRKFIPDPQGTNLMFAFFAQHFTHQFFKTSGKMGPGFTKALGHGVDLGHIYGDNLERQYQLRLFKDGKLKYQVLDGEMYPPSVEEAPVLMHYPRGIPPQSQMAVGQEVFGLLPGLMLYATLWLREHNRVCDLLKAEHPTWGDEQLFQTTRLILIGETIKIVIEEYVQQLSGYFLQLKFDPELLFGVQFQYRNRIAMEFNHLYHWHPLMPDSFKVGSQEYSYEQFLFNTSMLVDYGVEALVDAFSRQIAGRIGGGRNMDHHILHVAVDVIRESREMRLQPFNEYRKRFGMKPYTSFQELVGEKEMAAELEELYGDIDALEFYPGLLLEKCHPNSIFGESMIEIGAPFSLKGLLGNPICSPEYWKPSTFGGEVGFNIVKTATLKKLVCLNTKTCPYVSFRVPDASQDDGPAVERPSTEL

Row | SMILES | inhibition at 0.03 µM (COX-2) [%] | melting point [°C] | inhibition at 1 µM (COX-1) [%] | Cyclooxygenase (COX) Inhibition (%) COX-2 (30 nM) (COX-2) [%] | Cyclooxygenase (COX) Inhibition (%) COX-1 (1 μM) (COX-1) [%]
1 | CCOc1ccc(-c2c(-c3ccc(S(C)(=O)=O)cc3)ssc2=S)cc1 [Example 39, 4-(4-ethoxyphenyl)-5-(4-methanesulfonylphenyl)-[1,2]dithiol-3-thione] | 36.6 | 210 to 212 | 15 |  | 
2 | CS(=O)(=O)c1ccc(-c2ssc(=S)c2-c2ccc(Br)cc2)cc1 [Example 40, 4-(4-bromophenyl)-5-(4-methanesulfonylphenyl)-[1,2]dithiol-3-thione] | 35.7 | 238 to 240 | 18.3 |  | 
3 | Cc1ccc(-c2c(-c3ccc(S(C)(=O)=O)cc3)ssc2=S)cc1 [Example 41, 5-(4-methanesulfonylphenyl)-4-p-toryl-[1,2]dithiol-3-thione] |  |  |  | 24.5 | 20.1
4 | CS(=O)(=O)c1ccc(-c2ssc(=S)c2-c2ccccc2)cc1 [Example 42, 5-(4-methanesulfonylphenyl)-4-phenyl-[1,2]dithiol-3-thione] | 20.1 | 200 to 202 | 24.5 |  | 
5 | COc1ccc(-c2c(-c3ccc(S(C)(=O)=O)cc3)ssc2=S)cc1 [Example 43, 5-(4-methanesulfonylphenyl)-4-(4-methoxyphenyl)-[1,2]dithiol-3-thione] | 38.4 | 220 to 222 | 19.3 |  | 
6 | CS(=O)(=O)c1ccc(-c2ssc(=S)c2-c2ccccc2C(F)(F)F)cc1 [Example 44, 5-(4-methanesulfonylphenyl)-4-(2-trifluoromethylphenyl)-[1,2]dithiol-3-thione] | 20.1 | 240 to 242 | 25.5 |  | 
7 | CS(=O)(=O)c1ccc(-c2ssc(=S)c2-c2ccc(Cl)cc2)cc1 [Example 45, 4-(4-chlorophenyl)-5-(4-methanesulfonylphenyl)-[1,2]dithiol-3-thione] | 22.1 | 233 to 235 | 19.6 |  | 
8 | CS(=O)(=O)c1ccc(-c2ssc(=S)c2-c2ccc(Cl)c(Cl)c2)cc1 [Example 46, 4-(3,4-dichlorophenyl)-5-(4-methanesulfonylphenyl)-[1,2]dithiol-3-thione] | 21 |  | 24.6 |  | 
9 | CS(=O)(=O)c1ccc(-c2ssc(=S)c2-c2ccncc2)cc1 [Example 47, 5-(4-methanesulfonylphenyl)-4-(pyridine-4-yl)-[1,2]dithiol-3-thione] | 21.4 | 245 to 247 | 22.5 |  | 
10 | CS(=O)(=O)c1ccc(-c2ssc(=S)c2-c2cccnc2)cc1 [Example 48, 5-(4-methanesulfonylphenyl)-4-(pyridine-3-yl)-[1,2]dithiol-3-thione] | 24.2 |  | 23.6 |  | 
11 | CS(=O)(=O)c1ccc(-c2ssc(=S)c2-c2ccccn2)cc1 [Example 49, 5-(4-methanesulfonylphenyl)-4-(pyridine-2-yl)-[1,2]dithiol-3-thione] | 19.5 |  | 28 |  | 
12 | CS(=O)(=O)c1ccc(-c2ssc(=S)c2-c2ccc(F)cc2)cc1 [Example 50, 4-(4-fluorophenyl)-5-(4-methanesulfonylphenyl)-[1,2]dithiol-3-thione] | 19.6 | 195 to 197 | 27.2 |  | 

Now from value to compound:

Row | inhibition at 0.03 µM (COX-2) [%] | melting point [°C] | inhibition at 1 µM (COX-1) [%] | Cyclooxygenase (COX) Inhibition (%) COX-2 (30 nM) (COX-2) [%] | Cyclooxygenase (COX) Inhibition (%) COX-1 (1 μM) (COX-1) [%] | SMILES
13 | 19.8 | 176 to 177 | 27.6 |  |  | COc1ccc(OC)c(-c2c(-c3ccc(S(C)(=O)=O)cc3)ssc2=S)c1 [Example 51, 4-(2,5-dimethoxyphenyl)-5-(4-methanesulfonylphenyl)-[1,2]dithiol-3-thione]
14 | 19.1 | 164 to 165 | 26.6 |  |  | Cc1cc(C)cc(-c2c(-c3ccc(S(C)(=O)=O)cc3)ssc2=S)c1 [Example 52, 4-(3,5-dimethylphenyl)-5-(4-methanesulfonylphenyl)-[1,2]dithiol-3-thione]
15 | 21.6 | 212 to 213 | 26.7 |  |  | COc1cccc(-c2c(-c3ccc(S(C)(=O)=O)cc3)ssc2=S)c1 [Example 53, 5-(4-methanesulfonylphenyl)-4-(3-methoxyphenyl)-[1,2]dithiol-3-thione]
16 | 26.3 | 170 to 171 | 22.4 |  |  | CS(=O)(=O)c1ccc(-c2ssc(=S)c2-c2ccccc2[N+](=O)[O-])cc1 [Example 54, 5-(4-methanesulfonylphenyl)-4-(2-nitrophenyl)-[1,2]dithiol-3-thione]
17 | 20.2 | 188 to 189 | 27.6 |  |  | CS(=O)(=O)c1ccc(-c2ssc(=S)c2-c2cccc(C(F)(F)F)c2)cc1 [Example 55, 5-(4-methanesulfonylphenyl)-4-(3-trifluoromethylphenyl)-[1,2]dithiol-3-thione]
18 |  |  |  | 25.6 | 20.6 | Cc1ccccc1-c1c(-c2ccc(S(C)(=O)=O)cc2)ssc1=S [Example 56, 5-(4-methanesulfonylphenyl)-4-o-toryl-[1,2]dithiol-3-thione]
19 | 21.1 | 161 to 162 | 20.7 |  |  | CS(=O)(=O)c1ccc(-c2ssc(=S)c2-c2ccccc2Cl)cc1 [Example 57, 4-(2-chlorophenyl)-5-(4-methanesulfonylphenyl)-[1,2]dithiol-3-thione]
20 | 20.1 | 176 to 177 | 24.2 |  |  | CS(=O)(=O)c1ccc(-c2ssc(=S)c2-c2ccc(Cl)cc2Cl)cc1 [Example 58, 4-(2,4-dichlorophenyl)-5-(4-methanesulfonylphenyl)-[1,2]dithiol-3-thione]
21 | 20.1 |  | 22.6 |  |  | CS(=O)(=O)c1ccc(-c2ssc(=S)c2-c2ccc3ccccc3c2)cc1 [Example 65, 5-(4-methanesulfonylphenyl)-4-(naphthalene-2-yl)-[1,2]dithiol-3-thione]
22 |  |  |  | 19.2 | 28.2 | CS(=O)(=O)c1ccc(-c2ssc(=S)c2-c2c(F)c(F)c(F)c(F)c2F)cc1 [Example 66, 5-(4-methanesulfonylphenyl)-4-pentafluorophenyl-[1,2]dithiol-3-thione]
23 |  |  |  | 21.0 | 20.3 | Cc1ccc(-c2c(-c3ccc(S(C)(=O)=O)cc3Cl)ssc2=S)cc1 [Example 71, 5-(2-chloro-4-methanesulfonylphenyl)-4-p-toryl-[1,2]dithiol-3-thione]
24 |  |  |  | 31.5 | 15.2 | Cc1ccc(-c2c(-c3ccc(S(C)(=O)=O)c(F)c3)ssc2=S)cc1 [Example 77, 5-(3-fluoro-4-methanesulfonylphenyl)-4-p-toryl-[1,2]dithiol-3-thione]
25 | 32.5 |  | 18.5 |  |  | COc1ccc(-c2c(-c3ccc(S(C)(=O)=O)c(F)c3)ssc2=S)cc1 [Example 78, 5-(3-fluoro-4-methanesulfonylphenyl)-4-(4-methoxyphenyl)-[1,2]dithiol-3-thione]
26 |  |  |  | 23.2 | 25.6 | Cc1ccc(-c2c(-c3ccc(S(C)(=O)=O)cc3)[nH][nH]c2=S)cc1 [Example 80, 5-(4-methanesulfonylphenyl)-4-p-toryl-[1,2]dihydropyrazole-3-thione]
